Data published in patent US8491897B2, “Treatment of neuropathic pain using anti-thrombospondin antibodies” (The Board of Trustees of the Leland Stanford Junior …, priority 2007, dated 2013).
“Also recorded” adds a separate entry of the source.

Legend:
RGCs = test: RGC neurite outgrowth; conditions: data not shown
[1] = test system: glutamatergic excitatory synapses in the cortex; test: Synapse assay on mouse brain sections (VGlut2/PSD95 co-localized puncta in cortex) after GBP injection; assay type: in vivo, mice
Description: To determine whether GBP similarly blocks synapse formation in vivo, neonatal mice were injected with either GBP or saline, for the first postnatal week, which coincides with the initiation of synapse formation in the brain (see Experimental Procedures). […] At this age P7 glutamatergic synapses in the cortex are predominantly VGlut2 positive (Miyazaki et al., The Eur. J. of Neuroscience, 17:2563-2572, 2003). Therefore, co-immunostaining of sagital brain sections from (P7) saline or GBP-injected, mice was carried out with antibodies against VGlut2 and PSD95 and the number of co-localized pre- and post-synaptic puncta was quantified to determine synaptic density in the cortex of these mice. […] This difference was mainly due to a severe decrease in synapse number in half of the GBP injected animals. […] GBP injection affected both VGlut2 and PSD95 puncta by reducing their number, size, and co-localization (FIG. 7E) similar to its effect on synaptic puncta in vitro (FIG. 7A). […] It is interesting that the effect of GBP in vivo is an “all or none” effect rather than a gradual decrease in synapse number, and that only 50% of the mice responded to GBP injection. This could be due to a critical threshold concentration of GBP necessary to be effective in blocking synapse formation, which might only be achieved in some of the mice. In three repeated experiments, however, we observed only half of the mice were affected by GBP, even when we increased the total dosage and frequency from once a day to three times per day (see below and Experimental Procedures), and even though an inbred strain of mice was used.
Brains were immersed in 4% paraformaldehyde (PFA), fixed overnight at 4° C., and cryo-protected in 30% sucrose. For synaptic staining, tissue was embedded in a 2:1 mixture of 20% sucrose:OCT in PBS, and cryo-sectioned (12 μm). Sections were dried at 37° C., washed three times in PBS, and blocked with 20% normal goat serum (NGS, Invitrogen) in PBS 1 hr. Primary antibodies were diluted in PBS with 0.3% triton and 10% NGS as follows: PSD95 (Zymed, rabbit, 1:500) and VGlut1 and VGlut2 (Chemicon, guinea pig, 1:2500) incubated overnight at 4° C. […]
Three independent sagital brain sections per animal were stained with pre- and post-synaptic markers and 5 μm confocal scans were performed (optical section width 0.38 μm, 14 optical sections each) at the cortex. […] Merged single optical section images at 1 μm intervals were analyzed using the ImageJ-puncta analyzer option to count for number of co-localized pre- and post-synaptic puncta (5 optical sections per brain section and 15 total images per brain). Average synaptic density per imaged area was calculated for each condition. […]

barrel cortex = test: Lesion-induced barrel cortex plasticity assay in neonatal mice; assay type: in vivo
Excerpt: Understanding how the brain remodels its neuronal networks has been a major goal of neurobiology, as these processes underlie learning, memory and recovery from injury. Is astrocyte-induced synapse formation involved in remodeling neural circuits during development? To explore this question a well-established developmental plasticity paradigm, ‘the barrel cortex plasticity’ assay, was used. The nerves that innervate the major whiskers on the snout of the mouse project to the brain as a topographically ordered “somatotopic” map where afferent axons and target cells form ordered modules that recapitulate the structural organization seen on the whisker pad (Erzurumlu et al., The Anatomical Record 288:121-134, 2006). First, neurons of the trigeminal nerve innervate the mystacial vibrissae (whiskers) and send projections […]. These projections then form synapses at the brainstem (barrelettes) and their afferents then project and synapse at the thalamus (barreloids). […]
Two groups of neonatal mice were injected either with GBP or an equal volume of saline daily starting at P0 until P7. […] The mice were then sacrificed at P7 and their barrel structure corresponding to both the unlesioned “control” hemisphere and the lesioned hemisphere were analyzed. […]

Compound: NCC1(CC(=O)O)CCCCC1 [Gabapentin, 1-(aminomethyl)cyclohexaneacetic acid]
- neurite outgrowth (RGCs): did not affect neurite outgrowth
- proportion of injected mice that responded (severe reduction of synaptic puncta) ([1]; P7 mice): 50%
- density of VGlut2/PSD95 excitatory synapses in the cerebral cortex ([1]; P7 mice injected i.p. daily in first postnatal week, vs saline, listed as GBP): significant decrease in the density of excitatory synapses; also recorded: significant decrease in the number of VGlut2-PSD95 synapses
- VGlut2/PSD95 synaptic density relative to saline injected values ([1]; in the half of the mice that responded): less than 10%
- number of neurons ([1]; responding mice): no apparent effect on the number of neurons
- barrel formation on unlesioned control side (barrel cortex; daily injection P0 to P7, listed as GBP): typical barrels formed on the control side; also recorded: did not affect the barrel cortex formation
- proportion of injected mice with atypical/aberrant barrel cortex plasticity response (barrel cortex; lesioned side, daily injection P0 to P7, C-row whisker lesion at P1): 50%
